Assay results taken from US20130045475A1, “2-Nitrobenzyl-Modified Ribonucleotides” (ALERE SAN DIEGO, INC., priority 2004, published 2013).

Tests used:
T7 RNA polymerase [1] = molecular target: T1, T7 RNA polymerase (Escherichia phage T7, UniProt P00573); details: elongation mode complexes on duplex DNA substrates
T7 RNA polymerase [2] = molecular target: T1, T7 RNA polymerase
Description: The reaction was started by the addition of 20 μl of 10 mM 2′-(2-Nitrobenzyl)-ATP and incubated for 2 hours at 37° C. Subsequently the reaction was split into 4 samples and subjected to deprotection: two samples were exposed to UV irradiation as described above, two untreated samples were incubated for the same period of time at ambient temperature. Deprotection was followed by addition of 1 volume of either extension mix containing 250 μM rNTPs in transcription buffer, or addition of transcription buffer only. Samples were then incubated for another 1 hour at 37° C.
Processing, separation and detection of products was done as described above.

T7 RNA polymerase [3] = molecular target: T1, T7 RNA polymerase; assay: Primer extension reactions with RNA/DNA scaffold and T7 RNA polymerase; assay type: biochemical; parameters: purchased Fermentas; details: for extension of the RNA primer of the scaffold: sole nucleotide offered, template encodes rATP then rGTP, FIG. 2B
Description: The nucleic acid scaffolds were formed by incubating 1 nmol RNA-1 (5′-biotin-AACUGCGGCGAU-3′ (SEQ ID NO:1)) and 1 nmol DNA-1 (5′-[…]-3′ (SEQ ID NO:2)) in 100 μl transcription buffer (200 mM Tris-HCl (pH 7.9 at 25° C.), 30 mM MgCl2, 50 mM DTT, 50 mM NaCl, 10 mM spermidine) for 10 minutes at 70° C. Annealing occurred by slowly lowering the temperature to 25° C. The concentration of hybrid was assumed to be 10 μM.
For the primer extension reactions 2 pmoles of scaffold were mixed with 10 units of T7 RNA polymerase (Fermentas) in 9 μl transcription buffer to allow the transcription complex to form. Reactions were started by the addition of 1 μl of 1 mM nucleotide solution and incubated for 20 minutes at 37° C. Reactions were stopped by addition of 2 μl 500 mM EDTA and cooled on ice. UV irradiation was done for 10 minutes on a UV lamp.
Samples were precipitated, dissolved in formamide loading buffer and resolved on a denaturing 16% polyacrylamide gel (8M urea). Gels were electroblotted onto nylon-membrane (Osmonics, USA) in blotting buffer (0.5×TBE). Blots were incubated in blocking buffer (1×TBSTw/1% blocking reagent (Roche)) for 1 hour at room temperature to avoid non-specific noise, incubated with 0.5 μg/ml streptavidin-HRP (Sigma) in blocking buffer for 1 hour and washed extensively in Tris buffered saline containing 0.1% Tween-20. Detection was performed using a chemiluminescent substrate according to the instructions of the manufacturer (Pierce).

T1 sequence (P00573 whole entry): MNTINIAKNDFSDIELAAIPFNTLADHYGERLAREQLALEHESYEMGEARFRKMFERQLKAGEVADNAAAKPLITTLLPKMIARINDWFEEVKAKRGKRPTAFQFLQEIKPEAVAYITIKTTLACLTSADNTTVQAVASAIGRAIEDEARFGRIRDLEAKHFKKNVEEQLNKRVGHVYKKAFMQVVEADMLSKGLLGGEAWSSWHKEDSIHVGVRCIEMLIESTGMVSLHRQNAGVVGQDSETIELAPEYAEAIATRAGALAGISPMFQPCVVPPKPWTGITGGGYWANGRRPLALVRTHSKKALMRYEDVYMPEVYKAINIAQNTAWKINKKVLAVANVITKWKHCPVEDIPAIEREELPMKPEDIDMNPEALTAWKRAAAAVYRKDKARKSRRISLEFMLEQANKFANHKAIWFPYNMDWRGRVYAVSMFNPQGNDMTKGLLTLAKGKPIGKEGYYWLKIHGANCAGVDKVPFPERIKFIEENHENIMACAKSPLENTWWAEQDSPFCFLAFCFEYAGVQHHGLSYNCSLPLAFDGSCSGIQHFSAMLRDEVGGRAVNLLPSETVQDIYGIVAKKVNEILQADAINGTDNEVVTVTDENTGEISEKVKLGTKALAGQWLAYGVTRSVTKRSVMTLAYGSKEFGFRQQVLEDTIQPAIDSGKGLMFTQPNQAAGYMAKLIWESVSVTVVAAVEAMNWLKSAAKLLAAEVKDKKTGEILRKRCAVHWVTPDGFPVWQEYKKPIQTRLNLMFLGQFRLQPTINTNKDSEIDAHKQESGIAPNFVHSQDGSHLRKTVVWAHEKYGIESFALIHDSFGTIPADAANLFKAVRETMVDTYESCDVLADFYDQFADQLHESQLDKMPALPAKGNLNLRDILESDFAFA

Nc1ncnc2c1ncn2[C@@H]1O[C@H](COP(=O)(O)OP(=O)(O)OP(=O)(O)O)[C@@H](O)[C@H]1OCc1ccccc1[N+](=O)[O-] [2′-(2-Nitrobenzyl)-ATP]
incorporation into a growing RNA chain (T7 RNA polymerase [1]): we have not observed this activity
reversal of termination on deprotection (T7 RNA polymerase [2]; UV irradiation 10 minutes, then 250 μM rNTPs extension mix, 1 hour at 37° C., FIG. 3 lane 4): Elongation of the transcript can resume upon removal of the protecting 2-Nitrobenzyl group by UV irradiation
termination of transcription (T7 RNA polymerase [2]; scaffold + T7 RNAP + 2′-(2-Nitrobenzyl)-ATP 2 hours at 37° C., no UV, then rNTPs, FIG. 3 lane 3): acts as a bona fide terminator of transcription
incorporation of the nucleotide analog into a growing RNA chain (T7 RNA polymerase [3]; RNA/DNA scaffold, 10 units T7 RNA polymerase, 1 μl of 1 mM nucleotide solution, 20 minutes at 37° C., gel mobility before and after UV): incorporation into the nascent RNA chain by T7 RNAP

Nc1ncnc2c1ncn2[C@@H]1O[C@H](COP(=O)(O)OP(=O)(O)OP(=O)(O)O)[C@@H](O)[C@H]1O [rATP, adenosine 5′-triphosphate]
extension of the RNA primer of the scaffold (T7 RNA polymerase [3]): extended by one or two bases

Nc1ccn([C@@H]2O[C@H](COP(=O)(O)OP(=O)(O)OP(=O)(O)O)[C@@H](O)[C@H]2O)c(=O)n1 [rCTP, cytidine 5′-triphosphate]
extension of the RNA primer of the scaffold (T7 RNA polymerase [3]): extension is limited to one base only
